Data from patent US8916599B2, “1H-benz imidazole-5-carboxamides as anti-inflammatory agents” (Orexo AB, priority 2008, dated 2014).

Target: T1, recombinant human mPGES-1 (Homo sapiens, UniProt O14684)
T1 construct: made in house; host or cells: Rosetta E. coli (microsomal/membrane fraction)
T1 sequence (O14684 1-152): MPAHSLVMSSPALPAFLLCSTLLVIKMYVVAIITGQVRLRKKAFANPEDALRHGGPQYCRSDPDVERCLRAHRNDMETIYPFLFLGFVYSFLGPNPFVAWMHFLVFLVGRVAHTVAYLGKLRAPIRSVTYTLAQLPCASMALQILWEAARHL
Assay: mPGES-1 inhibition test (microsomes, PGH2 substrate, HTRF detection of PGE2)
Assay type: biochemical
Settings: inhibition of mPGES-1 at 10 μM
How it was run: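 Microsomes from E. coli Rosetta expressing the enzyme, in 0.1 M KPi pH 7.4 with 2.5 mM GSH, were preincubated 25 min at room temperature with inhibitor in DMSO. PGH2 was added, the reaction stopped after one minute with acidified FeCl2, and PGE2 quantified by HTRF after 750-fold dilution.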

inhibition at 10 µM [%]	SMILES
100	CC(C)(C)[C@H]1CC[C@@H](NC(=O)c2cc3nc(Nc4c(F)cccc4Cl)[nH]c3cc2F)CC1 [Example 378, N-((1s,4s)-4-tert.-Butylcyclohexyl)-2-(2-chloro-6-fluorophenylamino)-6-fluoro-1H-benzimidazole-5-carboxamide]
100	Cn1c(Nc2cc(Cl)ccc2Cl)nc2cc(C(=O)Nc3ccc(Br)cc3)ccc21 [Example 380, N-(4-Bromophenyl)-2-(2,5-dichlorophenylamino)-1-methyl-1H-benzimidazole-5-carboxamide]
100	Cn1c(Nc2c(F)cccc2Cl)nc2cc(C(=O)Nc3ccc(Br)cc3)ccc21 [Example 381, N-(4-Bromophenyl)-2-(2-chloro-6-fluorophenylamino)-1-methyl-1H-benzimidazole-5-carboxamide]
100	Cc1cccc(Cl)c1Nc1nc2cc(C(=O)Nc3ccc(Br)cc3)ccc2n1C [Example 382, N-(4-Bromophenyl)-2-(2-chloro-6-methylphenylamino)-1-methyl-1H-benzimidazole-5-carboxamide]
100	COc1cc2[nH]c(Nc3c(Cl)cccc3Cl)nc2cc1C(=O)NCc1ncccc1C(F)(F)F [Example 383, 2-(2,6-Dichlorophenylamino)-6-methoxy-N-((3-trifluoromethyl-pyridin-2-yl)-methyl)-1H-benzimidazole-5-carboxamide]
100	Cn1c(Nc2c(F)cccc2Cl)nc2cc(C(=O)NC3CCC4(CC3)CC4)c(F)cc21 [Example 384]
99	Cn1c(Nc2ccc(F)cc2C(F)(F)F)nc2cc(C(=O)Nc3ccc(Br)cc3)ccc21 [Example 385, N-(4-Bromophenyl)-2-(4-fluoro-2-trifluoromethyl-phenylamino)-1-methyl-1H-benzimidazole-5-carboxamide]
100	O=C(NC1CCC2(CC1)CC2)c1cc2nc(Nc3c(Cl)cccc3Cl)[nH]c2cc1F [Example 387, 2-(2,6-Dichlorophenylamino)-6-fluoro-N-(spiro[2.5]octan-6-yl)-1H-benzimidazole-5-carboxamide]
100	Cn1c(Nc2c(F)cccc2Cl)nc2cc(C(=O)NCCCC3CC3)c(F)cc21 [Example 390, 2-(2-Chloro-6-fluorophenylamino)-N-(3-cyclopropylpropyl)-6-fluoro-1-methyl-1H-benzimidazole-5-carboxamide]
100	CCCCCNC(=O)c1cc2nc(Nc3c(Cl)cccc3Cl)n(C)c2cc1F [Example 391, 2-(2,6-Dichlorophenylamino)-6-fluoro-1-methyl-N-pentyl-1H-benzimidazole-5-carboxamide]
100	CCC1CCC(NC(=O)c2cc3nc(Nc4c(F)cccc4Cl)n(C)c3cc2F)C1 (stereo not drawn) [Example 392, 2-(2-Chloro-6-fluorophenylamino)-N-(3-ethylcyclopentyl)-6-fluoro-1-methyl-1H-benzimidazole-5-carboxamide]
100	O=C(Nc1ccc(Br)cc1)c1cc2[nH]c(Nc3c(Cl)cccc3Cl)nc2c(F)c1F [Example 395, N-(4-Bromophenyl)-2-(2,6-dichlorophenylamino)-4,5-difluoro-1H-benzimidazole-6-carboxamide]
99	Cn1c(Nc2c(Cl)cccc2Cl)nc2cc(C(=O)NCCC3CCC3)c(F)cc21 [Example 397, N-(2-Cyclobutylethyl)-2-(2,6-dichlorophenylamino)-6-fluoro-1-methyl-1H-benzimidazole-5-carboxamide]
96	Cn1c(Nc2c(Cl)cccc2Cl)nc2cc(C(=O)NCCCC3CC3)c(F)cc21 [Example 398, N-(3-Cyclopropylpropyl)-2-(2,6-dichlorophenylamino)-6-fluoro-1-methyl-1H-benzimidazole-5-carboxamide]
99	O=C(NC1CCC2(CC1)CC2)c1cc2nc(Nc3c(F)cccc3Cl)[nH]c2cc1F [Example 399, 2-(2-Chloro-6-fluorophenylamino)-6-fluoro-N-(spiro[2.5]octan-6-yl)-1H-benzimidazole-5-carboxamide]
